From US10647738B2, “Xylene-based amphiphilic compound and use thereof” (Industry-University Cooperation Foundation Hanyang …, priority 2016, dated 2020)
Values joined by “and” are separate entries in the source; they are usually repeats but may differ in a detail not shown here. Equal entries are not always repeated. “Also recorded” adds a separate entry of the source.

What was measured:
[1] = target: T1, melibiose permease (MelB) (Salmonella typhimurium, UniProt P30878); assay: MelB extraction from membranes and thermostability, SDS-PAGE and western blotting; conditions: 1.5 wt % detergent, 90 minutes
T1 construct: made in house; host or cells: Salmonella typhimurium DW2 cells (ΔmelB and ΔlacZY) (so in the source); membrane preparation
Experimental: An experiment for measuring the structural stability of the Salmonella typhimurium melibiose permease (MelB) protein due to XMAs was performed. The MelB protein was extracted on a membrane using XMAs and DDM, and the amount and structure of the extracted protein were analyzed by SDS-PAGE and western blotting. A concentration of the used compound was 1.5 wt %, and the protein was extracted at a different temperature (0, 45, 55, or 65° C.) to evaluate two kinds of performance such as protein extraction efficiency and stabilization ability of the compound at the same time. Membrane samples that were not treated with XMAs or DDM were used as controls.
Specifically, MelBSt stability due to DDM and XMAs was evaluated according to the method described in the paper (P. S. Chae, et al., Nat. Methods 2010, 7, 1003-1008) written by the inventor in 2010. The protein (MelBSt) was produced using plasmid pK95ΔAHB/WT MelBSt/CH10 encoding wild-type MelB with a 10-His tag at the C-terminus and Salmonella typhimurium DW2 cells (ΔmelB and ΔlacZY). Cell growth and membrane preparation were carried out according to the method described in the paper (Nat. Commun. 2014, 5, 3009) written by A. S. Ethayathulla et al. A protein assay was performed using a Micro BCA kit (Thermo Scientific, Rockford, Ill.). To measure solubilization/stability, MelBSt-containing membrane samples (final protein concentration of 10 mg/mL) were incubated with a solubilization buffer (20 mM sodium phosphate, pH 7.5, 200 mM NaCl, 10% glycerol, 20 mM melibiose) and 1.5% (w/v) DDM, P-XMAs (P-XMA-C8, P-XMA-C9, P-XMA-C10, P-XMA-C11 and P-XMA-C12), M-XMAs (M-XMA-C11, M-XMA-C12, M-XMA-C14, M-XMA-C16 and M-XMA-C18) or O-XMAs (O-XMA-C11, O-XMA-C12, O-XMA-C14, O-XMA-C16 and O-XMA-C18) at four different temperatures (0, 45, 55 and 65° C.) for 90 minutes. Following ultracentrifugation at 355,590 g in a Beckman Optima™ MAX ultracentrifuge using a TLA-100 rotor for 45 minutes at 4° C., 20 μg proteins were separated by SDS-16% PAGE, and then immunoblotted with a Penta-His-HRP antibody (Qiagen, Germantown, Md.). MelBSt was detected using a SuperSignal West Pico chemiluminescent substrate by an ImageQuant LAS 4000 Biomolecular Imager (GE Health Care Life Sciences).

[2] = target: T2, human β2 adrenergic receptor (β2AR) (Homo sapiens, UniProt P07550); assay: mBBr-β2AR fluorescence spectrum after dilution to CMC or less; format: biochemical; conditions: diluted with NH buffer, 30 minutes
T2 construct: made in house
Experimental: An experiment for comparing changes in protein structures of XMAs and DDM at CMC or less of an amphiphilic molecule was carried out.
Specifically, 0.5 μl of an unliganded mBB-labeled receptor solubilized in 20×CMC P-XMA-C11 or P-XMA-C12 at 50 μM was diluted with 500 μl of a NH buffer (20 mM HEPES pH 7.5, 100 mM NaCl). The protein was incubated for 30 minutes, and the mBBr spectrum was measured. The receptor solubilized in 0.1% DDM was diluted with a NH buffer, and used as a control.

[3] = Critical micelle concentration by fluorescence staining with diphenylhexatriene (DPH); format: physicochemical; conditions: aqueous solution
Experimental: While a method for measuring CMC is not particularly limited, a method widely known in the art may be used, and the measurement may be performed by, for example, a fluorescence staining method using diphenylhexatriene (DPH).
(§1) Specifically, the critical micellar concentration (CMC) was measured using fluorescence staining and diphenylhexatriene (DPH), and the hydrodynamic radii (Rh) of the micelles formed by agents were measured through a dynamic light scattering (DLS) experiment. The measured results are shown in Tables 1 and 2, compared with a conventional amphiphilic molecule (detergent), DDM.

[4] = Hydrodynamic radius and size distribution of micelles by dynamic light scattering (DLS); format: physicochemical
Experimental: A method for measuring the radius of a micelle is not particularly limited, but a method well known in the art may be used, and for example, the measurement may be performed using a dynamic light scattering (DLS) experiment.
as §1

boron transporter (Bor1) = target: T3, boron transporter (Bor1) (Arabidopsis thaliana, UniProt Q8VYR7); assay: Bor1 structural stability in detergent solution, CPM assay; conditions: CMC+0.04 wt % and CMC+0.2 wt %; two hours at 40° C.
T3 construct: GFP-His (TEV-cleavable) (C, cleaved yes); made in house; host or cells: S. cerevisiae
Experimental: An experiment for measuring the structural stability of a boron transporter (Bor1) in an aqueous solution due to P-XMAs was performed. The Bor1 structural stability was measured using a CPM assay, and concentrations of P-XMAs and DDM were estimated by measuring relative amounts of folded proteins at CMC+0.04 wt % (a) and CMC+0.2 wt % (b) to analyze Bor1 protein stability according to the concentration of an amphiphilic molecule.
Specifically, Bor1 was expressed as a fusion protein with a C-terminal GFP-His tag in S. cerevisiae. All steps were carried out at 4° C. A Bor1-containing membrane was resuspended with PBS (pH 7.4), 100 mM NaCl, and 10% glycerol and solubilized in 1% DDM for 1 hour with gentle stirring, followed by ultracentrifugation at 200,000 g for 45 minutes. The supernatant was adjusted with 10 mM imidazole, and applied to two 5 ml Ni^2+-NTA columns pre-equilibrated with Buffer A (PBS (pH 7.4), 100 mM NaCl, 10% glycerol, 0.03% DDM) supplemented with 10 mM imidazole. The column was washed with 5 CV of Buffer A supplemented with 30 mM imidazole, and washed with 5 CV of Buffer A supplemented with 50 mM imidazole, followed by elution in Buffer A supplemented with 500 mM imidazole. […] A clear plate cover was added, and the fluorescence of each well was monitored at 40° C. for 120 minutes.

T1 sequence (P30878 whole entry): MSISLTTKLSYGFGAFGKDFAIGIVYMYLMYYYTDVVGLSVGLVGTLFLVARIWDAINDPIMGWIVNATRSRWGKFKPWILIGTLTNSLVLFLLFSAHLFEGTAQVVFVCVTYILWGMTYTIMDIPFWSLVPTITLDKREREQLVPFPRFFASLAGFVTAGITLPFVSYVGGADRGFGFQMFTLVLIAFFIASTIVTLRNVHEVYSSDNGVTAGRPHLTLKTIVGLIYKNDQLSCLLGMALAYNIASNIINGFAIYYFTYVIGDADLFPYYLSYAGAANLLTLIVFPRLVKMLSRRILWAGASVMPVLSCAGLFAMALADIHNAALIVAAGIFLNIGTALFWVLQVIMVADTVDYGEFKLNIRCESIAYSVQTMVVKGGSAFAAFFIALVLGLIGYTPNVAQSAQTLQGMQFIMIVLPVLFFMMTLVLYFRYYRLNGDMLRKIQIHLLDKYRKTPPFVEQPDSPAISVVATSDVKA
T3 sequence (Q8VYR7 whole entry, species assumed): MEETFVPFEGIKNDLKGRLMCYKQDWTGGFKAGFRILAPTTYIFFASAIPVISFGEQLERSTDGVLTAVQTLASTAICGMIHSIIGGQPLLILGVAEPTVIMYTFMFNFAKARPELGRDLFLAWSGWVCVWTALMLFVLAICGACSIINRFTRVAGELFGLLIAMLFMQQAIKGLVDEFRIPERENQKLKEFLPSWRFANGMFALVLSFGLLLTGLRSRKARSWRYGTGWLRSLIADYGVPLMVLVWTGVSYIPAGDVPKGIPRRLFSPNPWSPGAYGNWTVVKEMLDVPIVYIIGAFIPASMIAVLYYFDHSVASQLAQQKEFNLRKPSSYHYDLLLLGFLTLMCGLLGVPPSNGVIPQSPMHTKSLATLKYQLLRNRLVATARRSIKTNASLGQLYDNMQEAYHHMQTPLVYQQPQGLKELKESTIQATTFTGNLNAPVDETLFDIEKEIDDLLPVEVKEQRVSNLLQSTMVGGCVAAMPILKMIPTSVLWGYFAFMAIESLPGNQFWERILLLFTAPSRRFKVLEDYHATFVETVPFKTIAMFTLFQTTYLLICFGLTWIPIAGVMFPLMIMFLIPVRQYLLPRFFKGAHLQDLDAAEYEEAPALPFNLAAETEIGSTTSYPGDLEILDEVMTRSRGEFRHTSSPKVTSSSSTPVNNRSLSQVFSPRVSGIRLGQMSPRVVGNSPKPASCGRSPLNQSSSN
T2 sequence (P07550 whole entry): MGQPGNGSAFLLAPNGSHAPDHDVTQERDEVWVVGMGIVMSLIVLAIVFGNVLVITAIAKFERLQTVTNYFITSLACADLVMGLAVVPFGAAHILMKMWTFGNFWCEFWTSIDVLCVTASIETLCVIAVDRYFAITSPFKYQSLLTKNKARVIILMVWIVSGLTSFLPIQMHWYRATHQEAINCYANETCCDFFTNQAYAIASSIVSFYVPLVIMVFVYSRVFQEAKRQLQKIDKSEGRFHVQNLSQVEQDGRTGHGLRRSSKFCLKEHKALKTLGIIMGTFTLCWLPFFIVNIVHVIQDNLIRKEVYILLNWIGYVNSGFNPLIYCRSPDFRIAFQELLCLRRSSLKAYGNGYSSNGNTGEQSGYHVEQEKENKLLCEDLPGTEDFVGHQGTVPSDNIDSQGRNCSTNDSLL

SMILES: CCCCCCCCCCCCO[C@@H]1O[C@H](CO)[C@@H](O[C@H]2O[C@H](CO)[C@@H](O)[C@H](O)[C@H]2O)[C@H](O)[C@H]1O [DDM, n-dodecyl-β-D-maltopyranoside, reference compound]
- MelB protein extraction efficiency ([1]; 0° C.): high protein extraction efficiency
- MelB protein extraction efficiency ([1]; 45° C.): high protein extraction efficiency
- MelB protein extraction / maintained solubilization ([1]; 55° C.): hardly observed; also recorded: failed to maintain the solubilization of MelB
- MelB protein extraction ([1]; 65° C.): did not extract the protein
- structural change of β2AR on dilution to CMC or less [2]: clear structural change due to dilution
- CMC [3]: ~170 µM
- CMC (wt %) [3]: ~0.0087 wt %
- Rh (nm), hydrodynamic radius of micelles ([4]; 1.0 wt % stated for M-/O-XMAs (FIG. 37)): 3.4 nm and 3.4 ± 0.02 nm
- size distribution of micelles (number of micelle sets) ([4]; FIGS. 36 and 37): one set of micelles
- Bor1 structural stability (relative amount of folded protein) (boron transporter (Bor1)): most instable state
